# From publication PMC4842970, “Bioactivity Focus of α-Cyano-4-hydroxycinnamic acid (CHCA) Leads to Effective Multifunctional Aldose Reductase Inhibitors” (Scientific Reports, 2016)
# Tests used:
# human ALR2 = target: T1, human ALR2 (Homo sapiens, UniProt P15121); assay: ALR2 inhibition (in vitro reduction of D,L-glyceraldehyde); assay type: biochemical
# T1 construct: purchased WAKO Pure Chemical Industries, Ltd. (Japan); host or cells: baculovirus-insect cell expression system
# Protocol: Human ALR2 was purchased from WAKO Pure Chemical Industries, Ltd. (Japan), which was purified from the culture medium of baculovirus-insect cell expression system. […] ALR2 inhibition was determined spectrophotometrically according to the procedure described previously.
# sorbitol content = assay: Sorbitol content in glucose-treated embryos; assay type: in vivo; conditions: glucose-treated chick embryos, EDD 5, dose 1 μM
# Protocol: (§1) As expected, treatment of 5f decreased ALR2 activity in a dose-dependent manner. […] However, EDA, which is a clinical radical scavenger, was shown no effect on the inhibition of ALR2.
# (§2) Embryos on EDD 5 were homogenized with chicken saline and centrifuged (4 °C, 10000 rpm, 10 min). The supernatant was used for measuring AR activity in the sample. A chicken AR ELISA kit (Jianglai Biotechnology, China) were used for detection. The concentration of AR in the samples was then determined by comparing the OD of the samples to the standard curve. The sorbitol contents of the chick embryo were determined by a Sorbitol Colorimetric Assay Kit (BioVision, USA). In the assay, sorbitol is oxidized to fructose with the proportional development of intense color with an absorbance maximum at 560 nm.
# chick embryo = assay: Chick embryo model of hyperglycemia: mortality, NTD rate, body weight; assay type: in vivo; conditions: glucose 0.4 mmol/egg
# Protocol: In order to evaluate further the potential of 5f as an agent to treat diseases caused by high glucose inside the system, a chick embryo model of treatment with high glucose was set up.
# Fertilized leghorn eggs were purchased from the Avian Farm of the South China Agriculture University (Guangzhou, China). Before the injection of glucose (Sigma–Aldrich, MO, USA), the eggs were incubated in a humidified incubator (Grumbach, Germany) at 37 °C with 60% humidity until the embryos reached the desired stage. […] Glucose was dissolved in 200 μL chicken saline and injected on EDD 1. Mortality, abnormality and body weight measurements were made on EDD 5. Embryos were removed from their eggs and weighed. The percent mortality was measured by counting the number of dead versus all embryos. The rate of NTD of the embryos was assessed by the number of NTD versus survival embryos.
# Pax3 = Pax3 protein expression in chick embryos (Western blotting); assay type: in vivo; conditions: glucose-treated chick embryos, EDD 5
# Protocol: Figure 4 5f restored neural tube development and marker expression in chick embryos on EDD 5. Glucose concentration (A) and Pax3 protein expression (B) were determined in chick embryos. The plasma glucose concentration was measured using a glucose oxidase-coupled spectrophotometric assay kit. Proteins were detected using the monoclonal antibody anti-Pax3 diluted 1:1000 (DSHB, USA) and visualized using anti-mouse IgG conjugated with horseradish peroxidase (HRP) and Pierce ECL Western Blotting Substrate (Thermo Fisher Scientific, USA) as the substrate of HRP. […] Values were expressed as mean ± SD in each group (n = 10). *P < 0.05, **P < 0.01 vs. control. ^#P < 0.05, ^##P < 0.01 vs. glucose.
# The eyes of EDD 5 chick embryos were separated and lysed in lysis buffer (Beyotime Institute of Biotechnology, China) on ice for 10 min. After centrifugation of the cell suspension at 12000 rpm for 15 min, the protein content of the supernatant was determined with a Pierce BCA protein assay kit (Thermo Fisher Scientific, USA) to ensure equal sample loading. […] Proteins were detected using the monoclonal antibody anti-Pax3 diluted 1:1000 (DSHB, USA) and visualized using anti-mouse IgG conjugated with horseradish peroxidase (HRP) and Pierce ECL Western Blotting Substrate (Thermo Fisher Scientific, USA) as the substrate of HRP.
# ALR1 = target: T2, ALR1 (Gallus gallus, UniProt Q5ZK84); assay: ALR1 activity in glucose-treated embryos (chicken ALR1 ELISA kit); assay type: in vivo; conditions: glucose-treated chick embryos, EDD 5, compared with the model group
# T2 construct: Embryos on EDD 5 were homogenized with chicken saline and centrifuged; from tissue; host or cells: EDD 5 chick (leghorn) embryo homogenate supernatant
# T2 sequence (Q5ZK84 1-327): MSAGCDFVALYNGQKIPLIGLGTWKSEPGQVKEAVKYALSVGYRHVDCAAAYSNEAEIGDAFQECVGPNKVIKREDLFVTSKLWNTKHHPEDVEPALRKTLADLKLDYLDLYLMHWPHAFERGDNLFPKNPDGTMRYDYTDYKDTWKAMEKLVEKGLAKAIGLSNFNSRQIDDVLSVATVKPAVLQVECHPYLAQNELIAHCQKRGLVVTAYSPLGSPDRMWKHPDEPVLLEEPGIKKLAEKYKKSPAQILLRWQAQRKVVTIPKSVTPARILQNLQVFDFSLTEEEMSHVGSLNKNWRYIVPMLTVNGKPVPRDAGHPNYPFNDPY
# Protocol: Embryos on EDD 5 were homogenized with chicken saline and centrifuged (4 °C, 10000 rpm, 10 min). The supernatant was used for measuring ALR1 activity in the sample. A chicken ALR1 ELISA kit (Jianglai Biotechnology, China) were used for detection. The concentration of ALR1 in the samples was then determined by comparing the OD of the samples to the standard curve.
# ALR2 = assay: AR (ALR2) activity in glucose-treated embryos (chicken AR ELISA kit); assay type: in vivo; conditions: glucose-treated chick embryos, EDD 5, dose 1 μM
# Protocol: as §1, §2
smiles,measurement,setting,value
"CC(=O)N[C@H](COCc1ccccc1)C(=O)NCCCNC(=O)/C(C#N)=C/c1ccc(O)cc1 [Compound 5f, (R,E) - N - (3-(2-acetamido-3-(benzyloxy)propanamido)propyl)-2-cyano-3-(4-hydroxyphenyl)acrylamide]",IC50,"human ALR2; human ALR2, D,L-glyceraldehyde as substrate, read-out: IC50 (ALR2 inhibition)",72.7 ± 1.6 nM
same,ALR2 inhibition activity relative to 5d,human ALR2; ratio of inhibition activity vs 5d,about 5 times
same,sorbitol content in embryo,sorbitol content,decreased significantly
same,Body weight,"chick embryo; EDD 5, dose 10 nM (CL)",291.3 ± 10.2 mg
same,Death (/n),"chick embryo; EDD 5, dose 10 nM (CL)",35.0%
same,NTD (/survival),"chick embryo; EDD 5, dose 10 nM (CL)",46.20%
same,Body weight,"chick embryo; EDD 5, dose 100 nM (CM)",295.9 ± 13.2 mg
same,Death (/n),"chick embryo; EDD 5, dose 100 nM (CM)",30.0%
same,NTD (/survival),"chick embryo; EDD 5, dose 100 nM (CM)",35.7%
same,Body weight,"chick embryo; EDD 5, dose 1 μM",307.9 ± 10.5 mg
same,Death (/n),"chick embryo; EDD 5, dose 1 μM",25.0%
same,NTD (/survival),"chick embryo; EDD 5, dose 1 μM",20.0%
same,Pax3 expression,Pax3,restored
same,ALR1 level in embryo,ALR1,no obvious change
same,ALR2 activity in embryo,ALR2,close to that of the control
